From ChEMBL document CHEMBL1124269, “1,3-Diamino-6,7-dimethoxyisoquinoline derivatives as potential alpha 1-adrenoceptor antagonists” (J Med Chem, 1988)

What was measured:
[1] = biological target: T1, Adrenergic receptor alpha-1 (Rattus norvegicus, UniProt P15823+P23944+P43140); experiment: Binding affinity to Alpha-1 adrenergic receptor by displacement of [3H]prazosin; type: protein assay
T1 sequence (P15823 whole entry): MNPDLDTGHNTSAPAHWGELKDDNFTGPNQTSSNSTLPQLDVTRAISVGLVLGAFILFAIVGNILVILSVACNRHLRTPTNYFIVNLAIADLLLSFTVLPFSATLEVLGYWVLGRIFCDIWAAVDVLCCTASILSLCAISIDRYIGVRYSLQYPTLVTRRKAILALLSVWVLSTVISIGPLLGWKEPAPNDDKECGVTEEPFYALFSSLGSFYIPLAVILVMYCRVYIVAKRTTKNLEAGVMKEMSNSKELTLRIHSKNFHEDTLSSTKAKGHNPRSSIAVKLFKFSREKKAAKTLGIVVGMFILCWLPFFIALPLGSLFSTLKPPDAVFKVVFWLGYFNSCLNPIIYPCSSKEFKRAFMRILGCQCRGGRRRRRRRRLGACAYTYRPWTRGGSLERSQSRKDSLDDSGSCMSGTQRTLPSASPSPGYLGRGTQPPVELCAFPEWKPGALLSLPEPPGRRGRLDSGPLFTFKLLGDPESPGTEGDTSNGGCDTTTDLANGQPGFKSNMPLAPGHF
T1 sequence (P23944 whole entry): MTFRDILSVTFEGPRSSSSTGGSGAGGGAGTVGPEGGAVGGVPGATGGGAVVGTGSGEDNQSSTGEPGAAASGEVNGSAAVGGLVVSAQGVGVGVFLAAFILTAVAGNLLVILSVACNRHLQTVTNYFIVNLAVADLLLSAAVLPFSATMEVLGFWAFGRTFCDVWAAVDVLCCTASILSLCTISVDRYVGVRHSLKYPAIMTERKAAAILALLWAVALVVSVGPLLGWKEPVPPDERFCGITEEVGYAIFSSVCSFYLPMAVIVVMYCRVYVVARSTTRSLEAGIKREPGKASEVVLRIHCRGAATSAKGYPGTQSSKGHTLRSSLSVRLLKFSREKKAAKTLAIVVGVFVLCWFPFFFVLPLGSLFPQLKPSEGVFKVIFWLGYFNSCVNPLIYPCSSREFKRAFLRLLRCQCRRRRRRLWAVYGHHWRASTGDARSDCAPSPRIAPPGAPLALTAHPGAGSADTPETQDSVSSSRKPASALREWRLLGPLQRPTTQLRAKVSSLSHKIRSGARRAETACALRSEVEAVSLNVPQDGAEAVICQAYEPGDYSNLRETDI
T1 sequence (P43140 whole entry): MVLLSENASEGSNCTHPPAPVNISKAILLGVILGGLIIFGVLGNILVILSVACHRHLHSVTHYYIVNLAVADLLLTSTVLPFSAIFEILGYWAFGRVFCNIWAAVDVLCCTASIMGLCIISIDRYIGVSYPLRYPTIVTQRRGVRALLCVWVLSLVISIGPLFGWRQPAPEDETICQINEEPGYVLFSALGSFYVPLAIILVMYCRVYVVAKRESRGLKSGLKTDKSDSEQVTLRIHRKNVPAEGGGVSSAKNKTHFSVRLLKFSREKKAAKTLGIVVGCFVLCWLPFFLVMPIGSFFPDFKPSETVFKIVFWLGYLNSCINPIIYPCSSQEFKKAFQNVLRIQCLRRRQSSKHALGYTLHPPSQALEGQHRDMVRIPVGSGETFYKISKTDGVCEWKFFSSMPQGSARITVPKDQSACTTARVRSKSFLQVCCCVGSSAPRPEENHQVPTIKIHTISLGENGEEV

[2] = tested on: Rattus norvegicus; experiment: Percent reduction of SHR (Spontaneous Hypertensive Rat) blood pressure at 4.5 hr at a dose 10 mg/kg peroral administration; type: functional; details: route oral
[3] = tested on: Rattus norvegicus; experiment: Percent reduction of SHR (Spontaneous Hypertensive Rat) blood pressure at 1 hr at a dose 10 mg/kg peroral administration; type: functional; details: route oral
[4] = biological target: T2, Adrenergic receptor alpha-2 (Rattus norvegicus, UniProt P22086+P19328+P22909); experiment: Binding affinity to alpha-2 adrenergic receptor by displacement of [3H]clonidine; type: protein assay
T2 sequence (P22086 whole entry): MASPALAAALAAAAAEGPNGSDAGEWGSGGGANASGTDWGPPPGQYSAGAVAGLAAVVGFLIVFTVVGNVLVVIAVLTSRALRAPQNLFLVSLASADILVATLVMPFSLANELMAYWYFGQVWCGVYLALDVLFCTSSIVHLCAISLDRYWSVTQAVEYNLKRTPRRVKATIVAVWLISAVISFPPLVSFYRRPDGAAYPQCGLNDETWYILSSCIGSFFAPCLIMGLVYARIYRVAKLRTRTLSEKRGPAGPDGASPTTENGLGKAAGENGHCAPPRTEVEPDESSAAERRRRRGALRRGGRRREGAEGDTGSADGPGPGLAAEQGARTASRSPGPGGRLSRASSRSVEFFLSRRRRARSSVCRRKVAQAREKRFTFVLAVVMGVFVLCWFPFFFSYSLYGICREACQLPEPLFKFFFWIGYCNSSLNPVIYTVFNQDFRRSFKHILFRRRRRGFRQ
T2 sequence (P19328 whole entry): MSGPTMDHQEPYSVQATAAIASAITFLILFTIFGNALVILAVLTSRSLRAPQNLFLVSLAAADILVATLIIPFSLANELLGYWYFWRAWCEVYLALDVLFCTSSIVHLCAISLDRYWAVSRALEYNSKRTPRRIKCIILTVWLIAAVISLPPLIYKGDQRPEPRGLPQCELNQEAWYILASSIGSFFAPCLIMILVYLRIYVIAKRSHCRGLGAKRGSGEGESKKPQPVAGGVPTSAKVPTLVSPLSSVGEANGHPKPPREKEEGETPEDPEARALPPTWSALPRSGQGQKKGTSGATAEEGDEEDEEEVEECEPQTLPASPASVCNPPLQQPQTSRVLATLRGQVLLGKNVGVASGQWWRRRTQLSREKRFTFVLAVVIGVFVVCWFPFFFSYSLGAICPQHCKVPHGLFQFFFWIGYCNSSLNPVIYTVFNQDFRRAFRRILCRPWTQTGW
T2 sequence (P22909 whole entry): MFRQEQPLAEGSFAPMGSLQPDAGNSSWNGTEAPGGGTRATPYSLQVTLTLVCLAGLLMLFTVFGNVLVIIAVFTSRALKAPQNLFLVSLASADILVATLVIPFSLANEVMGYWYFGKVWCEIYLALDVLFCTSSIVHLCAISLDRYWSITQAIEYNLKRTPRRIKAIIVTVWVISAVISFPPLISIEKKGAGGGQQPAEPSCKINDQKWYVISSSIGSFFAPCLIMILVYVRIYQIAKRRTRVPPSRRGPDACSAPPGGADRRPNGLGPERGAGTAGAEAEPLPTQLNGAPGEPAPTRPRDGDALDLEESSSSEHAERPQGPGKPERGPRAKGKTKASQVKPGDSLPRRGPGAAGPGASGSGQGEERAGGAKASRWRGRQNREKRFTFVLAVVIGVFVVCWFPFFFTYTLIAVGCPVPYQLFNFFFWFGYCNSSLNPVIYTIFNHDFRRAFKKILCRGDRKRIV

[5] = Ionization constant of the compound
[6] = tested on: Rattus norvegicus; experiment: Percent reduction of SHR (Spontaneous Hypertensive Rat) blood pressure at 1 hr at a dose 3 mg/kg peroral administration; type: functional; details: route oral
[7] = tested on: Rattus norvegicus; experiment: Percent reduction of SHR (Spontaneous Hypertensive Rat) blood pressure at 4.5 hr at a dose 3 mg/kg peroral administration; type: functional; details: route oral
[8] = tested on: Rattus norvegicus; experiment: Percent reduction of SHR (Spontaneous Hypertensive Rat) blood pressure at 4.5 hr at a dose 3 mg/kg peroral administration; details: route oral
[9] = tested on: Rattus norvegicus; experiment: Percent reduction of SHR (Spontaneous Hypertensive Rat) blood pressure at 1 hr at a dose 3 mg/kg peroral administration; details: route oral

Compound: COc1cc2cc(N3CCN(C(=O)c4ccco4)CC3)nc(N)c2cc1OC
- Ki ([1]; read-out: Ki): 160 nM
- Reduction [2]: 6%
- Reduction [3]: 4%

Compound: COc1cc2cc(N(C)C)nc(N)c2cc1OC
- Ki [1]: >> 1 uM
- Reduction [2]: 10%
- Ki [4]: >> 1 uM
- pKa [5]: 7.1
- Reduction [3]: 12%

Compound: COc1cc2nc(N3CCN(C(=O)c4ccco4)CC3)nc(N)c2cc1OC [PRAZOSIN]
- Reduction [6]: 24%
- Reduction [7]: 15%
- pKa [5]: 6.8

Compound: COc1cc2nc(N(C)C)cc(N)c2cc1OC
- Ki ([1]; read-out: Ki): 11.4 nM
- Ki [4]: > 1000 nM
- Reduction [8]: 11%
- pKa [5]: 9.3
- Reduction [9]: 12%

Compound: COc1cc2nc(N(C)C)nc(N)c2cc1OC
- Ki ([1]; read-out: Ki): 4.1 nM
- Ki [4]: > 1000 nM
- pKa [5]: 8.1

Compound: COc1cc2cc(N3CCCCC3)nc(N)c2cc1OC
- Ki [1]: >> 1 uM
- Reduction [2]: 11%
- Ki [4]: >> 1 uM
- Reduction [3]: 15%
